In patent publication US11578055B2, “Triazacyclododecansulfonamide (“TCD”)-based protein secretion inhibitors” (KEZAR LIFE SCIENCES, priority 2018, dated 2023):
Like-named read-outs stand apart in the source and are kept apart here.

Tests used:
[1] = system: PD1 signal sequence plus 10 amino acids fused to Gaussia Luciferase (PD1-ss+10aa/Gaussia Luciferase); assay: Dox Induced PD1-ss-Gluc Assay; assay type: cell-based; details: 24 hr, read-out: 24 hr Dox Inducible PD1ssGluc 293FRT/TO: Mean IC50
How it was run: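 Stable Flp-In 293 T-REx line expressing the fusion under tetracycline-inducible control, plated the day before assay. Compound dilutions added with doxycycline and incubated at 37 °C, 5% CO2; unspecified stereocentres mean data refer to stereoisomer mixtures.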

[2] = system: full length TNFα (amino acids 1-233) fused to Gaussia Luciferase; assay: Dox Induced TNFα-FL-Gluc Assay; assay type: cell-based; details: 24 hr, read-out: 24 hr Dox Inducible TNFaFLGluc 293FRT/TO: Mean IC50
How it was run: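 Stable Flp-In 293 T-REx line expressing doxycycline-inducible full-length TNFα fused to Gaussia luciferase; cells plated the day before, then treated with compound dilutions in doxycycline-containing medium at 37° C, 5% CO2. Unspecified stereocentres mean stereoisomer mixtures were tested.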

[3] = system: full length IL-2 (amino acids 1-153) fused to Gaussia Luciferase; assay: Dox Induced IL2-FL-Gluc Assay; assay type: cell-based; details: 24 hr, read-out: 24 hr Dox Inducible IL2FLGluc 293FRT/TO: Mean IC50
Excerpt: FIp-In 293 T-REx™ cells were transfected with pcDNA™5/FRT/TO plasmid inserted with cDNA encoding Gaussia Luciferase fused to the 3′ end of cDNA encoding full length IL-2 (amino acids 1-153). Transfected cells were selected for resistance to the selectable markers Hygromycin and Blasticidin to create a stable cell line that contained the IL-2-FL/Gaussia Luciferase cDNA insert whose expression was regulated under the T-REx™ system. The day before assay, cells were trypsinized and plated in 384-well tissue culture plates. The next day, compound dilutions in DMSO/media containing doxycycline were added to the wells and incubated at 37° C., 5% CO2.
For chemical structures that include one or more stereoisomers, but are illustrated without indicating stereochemistry, the assay data refers to a mixture of stereoisomers.

[4] = system: multiple myeloma cell line NCl-H929; assay: H929 Cell Viability Assay; assay type: cell-based, human
How it was run: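 NCI-H929 myeloma cells in RPMI 1640 with 10% FBS were treated with compound dilutions for 48 h at 37 °C, and viability was then read by CellTiter-Glo luminescence. Compounds drawn without stereochemistry were tested as stereoisomer mixtures.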

[5] = system: multiple myeloma cell line U266B1; assay: U266 Cell Viability Assay; assay type: cell-based, human; details: 48 hr
How it was run: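 U266B1 myeloma cells in RPMI 1640 with 10% FBS were treated with compound dilutions for 48 h at 37° C, 5% CO2. Viability was read as CellTiter-Glo luminescence. Data for structures drawn without stereochemistry refer to stereoisomer mixtures.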

[6] = In Vitro Microsome Stability Assay (human); assay type: in vitro ADME
How it was run: (§1)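 Species liver microsomes in potassium phosphate buffer were preincubated at 37 °C for 3–5 min with test compound (added from 0.25 mM DMSO stock), then started with NADPH. Samples at 0 and 30 min were quenched with acetonitrile containing internal standard and analysed by LC-MS/MS; % remaining at 30 min used analyte/IS AUC ratios relative to t=0.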

[7] = In Vitro Microsome Stability Assay (mouse); assay type: in vitro ADME
How it was run: as §1

[8] = In Vitro Microsome Stability Assay (rat); assay type: in vitro ADME
How it was run: as §1

[9] = In Vitro Microsome Stability Assay (monkey); assay type: in vitro ADME
How it was run: as §1

[10] = human liver microsomes, 30 min w/ NADPH
[11] = mouse liver microsomes, 30 min w/ NADPH
[12] = rat liver microsomes, 30 min w/ NADPH
[13] = monkey liver microsomes, 30 min w/ NADPH
[14] = Homo sapiens, NCI-H929, 48 h, H929, read-out: 48 hr H929 Viability Celltiter-Glo: Mean EC50
[15] = Homo sapiens, U-266, U266, read-out: 48 hr U266 Viability Celltiter-Glo: Mean EC50
[16] = Homo sapiens, NCI-H929, 48 h, H929, Celltiter-Glo
[17] = Homo sapiens, U-266, U266, Celltiter-Glo

SMILES | IC50 ([1]; Dox inducible, 293FRT/TO cells) | IC50 ([2]; Dox inducible, 293FRT/TO cells) | IC50 ([3]; Dox inducible, 293FRT/TO cells) | EC50 ([4]; 48 hr, H929, Celltiter-Glo) | EC50 ([5]; U266, Celltiter-Glo) | Liver Microsome Stability-% Left after 30 min w/ NADPH (%) Human [6, 10] | Liver Microsome Stability-% Left after 30 min w/ NADPH (%) Mouse [7, 11] | Liver Microsome Stability-% Left after 30 min w/ NADPH (%) Rat [8, 12] | Liver Microsome Stability-% Left after 30 min w/ NADPH (%) Monkey [9, 13] | IC50 ([1]; 293FRT/TO) | IC50 ([2]; 293FRT/TO) | IC50 ([3]; 293FRT/TO) | EC50 [4, 14] | EC50 [5, 15] | Liver Microsome Stability-% Left after 30 min w/ NADPH (%) Human ([6]; human, 30 min, NADPH) | Liver Microsome Stability-% Left after 30 min w/ NADPH (%) Mouse ([7]; mouse, 30 min, NADPH) | Liver Microsome Stability-% Left after 30 min w/ NADPH (%) Rat ([8]; rat, 30 min, NADPH) | Liver Microsome Stability-% Left after 30 min w/ NADPH (%) Monkey ([9]; monkey, 30 min, NADPH) | EC50 [4, 16] | EC50 [5, 17]
Cc1cc(F)ccc1N1CCN(S(=O)(=O)N2CCCN(CC3CCCCC3)CCCN(S(=O)(=O)c3ccc(N(C)C)cc3)C[C@H](C)C2)C(C)C1 (stereo in doubt) [A163, 4-{[(3S)-9-(cyclohexylmethyl)-5-{[(2 R)-4-(4-fluoro-2-methylphenyl)-2-methylpiperazin-1-yl]sulfonyl}-3-methyl-1,5,9-triazacyclododecan-1-yl]sulfonyl}-N,N-dimethylaniline] | 0.0556 µM | 1.93 µM | 0.0812 µM | 13.6 µM | > 25 µM | 64.2% | 72.8% | 54.9% | 57.5% |  |  |  |  |  |  |  |  |  |  | 
CO/N=C1/CN(S(=O)(=O)c2ccc(N(C)C)cc2)CCCN(CC2CCCCC2)CCCN(S(=O)(=O)N2CCC(c3ccccc3)CC2)C1 [A88, (3Z)-9-(cyclohexylmethyl)-1-[4-(dimethylamino)benzenesulfonyl]-N-methoxy-5-[(4-phenylpiperidin-1-yl)sulfonyl]-1,5,9-triazacyclododecan-3-imine] |  |  |  |  |  |  |  |  |  | 4.33 µM | > 25 µM | > 25 µM | > 25 µM | > 25 µM | 11.7% | 15.9% | 15.2% | 1.33% |  | 
C=C1CN(S(=O)(=O)c2ccc(N(C)C)cc2)CCCN(CC2CCCCC2)CCCN(S(=O)(=O)N2Cc3ccc(Cl)cc3C2)C1 [A89, 4-({5-[(5-chloro-2,3-dihydro-1H-isoindo1-2-yl)sulfonyl]-9-(cyclohexylmethyl)-3-methylidene-1,5,9-triazacyclododecan-1-yl}sulfonyl)-N,N-dimethylaniline] |  |  |  |  |  |  |  |  |  | 0.082 µM | 1.21 µM | 0.187 µM | 1.75 µM | > 25 µM | 18.5% | 17.1% | 22.2% | 13.5% |  | 
C[C@H]1CN(S(=O)(=O)c2ccc(N(C)C)cc2)CCCN(CC2CCCCC2)CCCN(S(=O)(=O)N2CC[C@@H](c3ccccc3)C2)C1 [A90, 4-{[(3S)-9-(cyclohexylmethyl)-3-methyl-5-{[(3S)-3-phenylpyrrolidin-1-yl]sulfonyl}-1,5,9-triazacyclododecan-1-yl]sulfonyl}-N,N-dimethylaniline] |  |  |  |  |  |  |  |  |  | 0.207 µM | 2.41 µM | 0.493 µM | 3.79 µM | > 25 µM | 20.1% | 28.2% | 20.2% | 14.1% |  | 
C[C@H]1CN(S(=O)(=O)c2ccc(N(C)C)cc2)CCCN(CC2CCCCC2)CCCN(S(=O)(=O)N2CCNCC2)C1 [A155, 4-{[(3S)-9-(cyclohexylmethyl)-3-methyl-5-(piperazine-1-sulfonyl)-1,5,9-triazacyclododecan-1-yl]sulfonyl}-N, N-dimethylaniline] | 1.35 µM |  | 3.48 µM |  |  | 17.8% | 16.8% | 38.8% | 4.86% |  |  |  |  |  |  |  |  |  | 7.8 µM | > 25 µM
CN(C)c1ccc(S(=O)(=O)N2C/C=C/CN(S(=O)(=O)N3CCC(c4ccccc4)CC3)CCCN(CC3CCCCC3)CCC2)cc1 [B9, 4-{[(11E)-5-(cyclohexylmethyl)-9-[(4-phenylpiperidin-1-yl)sulfonyl]-1,5,9-triazacyclotridec-11-en-1-yl]sulfonyl}-N,N-dimethylaniline] | 3.64 µM | > 25 µM |  |  |  | 0.49% | 0.36% | 3.74% | 0.26% |  |  |  |  |  |  |  |  |  | > 25 µM | > 25 µM
C[C@@H](CNS(=O)(=O)c1ccc(N(C)C)cc1)CNS(=O)(=O)N1CCc2cc(Cl)ccc2C1 [B10, (S)-6-chloro-N-(3-((4-(dimethylamino)phenyl)sulfonamido)-2-methylpropyl)-3,4-dihydroisoquinoline-2(1H)-sulfonamide] | 16.5 µM | > 25 µM | 6.92 µM |  |  |  |  |  |  |  |  |  |  |  |  |  |  |  | > 25 µM | > 25 µM
C[C@H](CNS(=O)(=O)c1ccc(N(C)C)cc1)CNS(=O)(=O)N1CCc2cc(Cl)ccc2C1 [B11, N-[(2 R)-3-{[(6-chloro-1,2,3,4-tetrahydroisoquinolin-2-yl)sulfonyl]amino}-2-methylpropyl]-4-(dimethylamino)benzene-1-sulfonamide] | > 25 µM | > 25 µM | > 25 µM |  |  |  |  |  |  |  |  |  |  |  |  |  |  |  | > 25 µM | > 25 µM
C[C@@H](CN(C)S(=O)(=O)c1ccc(N(C)C)cc1)CN(C)S(=O)(=O)N1CCc2cc(Cl)ccc2C1 [B12] | 5.66 µM | > 25 µM | > 25 µM |  |  |  |  |  |  |  |  |  |  |  |  |  |  |  | > 25 µM | > 25 µM
C=C1CN(S(=O)(=O)c2ccc(N(C)C)cc2)C(C)CCN(CC2CCCCC2)CCCN(S(=O)(=O)N2CCC(c3ccccc3)CC2)C1 (centres unmarked) [B19, 4-{[5-(cyclohexylmethyl)-2-methyl-11-methylidene-9-[(4-phenylpiperidin-1-yl)sulfonyl]-1,5,9-triazacyclododecan-1-yl]sulfonyl}-N,N-dimethylaniline] | 0.221 µM | 15.4 µM |  |  |  | 9.46% | 13.5% | 15.7% | 0.98% |  |  |  |  |  |  |  |  |  | > 25 µM | > 25 µM
CN(C)c1ccc(S(=O)(=O)N2CCCN(CC3CCCCC3)CCCN(S(=O)(=O)N3CCC(c4ccccc4)CC3)CC(=O)C2)cc1 [B20, 9-(cyclohexylmethyl)-1-((4-(dimethylamino)phenyl)sulfonyl)-5-((4-phenylpiperidin-1-yl)sulfonyl)-1,5,9-triazacyclododecan-3-one] | 0.794 µM | > 25 µM |  |  |  | 5.43% | 3.41% | 11.1% | 1.73% |  |  |  |  |  |  |  |  |  | > 25 µM | > 25 µM
